| Structure (SMILES) | melting point [°C] |
| --- | --- |
| Cc1cc(C)cc(-c2cnn3c(-c4cccc(-c5nnn(CCN6CCCCC6)n5)c4)ccnc23)c1 | 66 |
| O=c1oc2ccc(Cl)cc2cc1S(=O)(=O)Cc1ccc(Cl)c([N+](=O)[O-])c1 | 272 to 275 |
| CC(C)c1cccc(Cl)c1Oc1nnc(Cl)cc1Cl | 90 to 91 |
| CN1C(=O)CCC2c3ccc(Cl)cc3CCC21 (centres undefined) | 82 |
| COc1ccc2c(n1)C1(CO2)C(=O)N(Cc2ncccc2C(F)(F)F)c2ccccc21 (centres undefined) | 195 to 198 |
| NC(=O)c1nnn(Cc2cc(Cl)c(S(=O)c3ccc(Cl)cc3)c(Cl)c2)c1N (centres undefined) | 195 to 197 |
| Cc1c(-c2ccc(F)cc2F)ncnc1C(F)F | 54 to 55 |
| O=C1Cc2cc(F)c(Cl)cc2N1 | 196 to 206 |
| Cc1ccc(Br)c(S(C)(=O)=O)c1 | 110 to 114 |
| CNC(=O)c1cc2nc(C(F)(F)F)ccc2c(C)c1NC(=O)c1cc(C(F)(F)F)nn1-c1ncccc1Cl | 227 to 230 |
| O=C(Cl)C=CC=Cc1ccccc1 | 51 to 52 |
| O=C(Nc1nc(-c2ccco2)c(C(=O)c2ccn(Cc3ccccc3)c(=O)c2)s1)c1ccncc1 | 288 to 291 |
| CCCC1CC(O)c2cc(S(N)(=O)=O)sc2S1 (centres undefined) | 156 to 157 |
| CCCN1C(=O)N2CCN=C2c2c1ncn2C | 110 to 112 |
| CC(C)c1ccc2nc[nH]c(=O)c2c1 | 147 |
| CCOC(=O)C(C)ON=C(C)C (centres undefined) | 59 to 61 |
| CCOC(=O)c1cc2cc(NC(=O)C[C@H]3O[C@H](c4cccc(OC)c4OC)c4cc(Cl)ccc4N(CC(C)(C)COC(C)=O)C3=O)ccc2[nH]1 | 200 to 201 |
| COc1ccccc1-n1c(=O)[nH]c2c(C(N)=O)nc(N[C@@H]3CCNC3)nc21 | > 400 |
| CCOC(=O)c1c(C)nc(-c2ccccc2)nc1-c1cc([N+](=O)[O-])ccc1S(C)(=O)=O | 150 to 151 |

| Structure (SMILES) | melting point [°C] |
| --- | --- |
| CCCCCCc1cc2c(s1)-n1c(C)nnc1C(C)N=C2c1ccccc1C (centres undefined) | 83 to 85 |
| CCCN(CCC)c1c2c(nn1C)N(c1c(C)cc(C)cc1Cl)CCC2 | 90 to 91 |
| CC(C)(C)OC(=O)N1C[C@@H]2OCc3c(-c4ccccc4)nnn3[C@H]2C1 | 236 to 237 |
| BrCc1ccc2ncoc2c1 | 52 to 56 |
| O=C(c1ccccc1C(c1ccc(O)cc1)c1ccc(O)cc1)N1CCN(c2ccccc2Cl)CC1 | > 300 |
| CN(c1ccncc1[N+](=O)[O-])n1cccc1C=O | 101 to 107 |
| COC(=O)C1=CCC2CC(=O)C12 (centres undefined) | 58 to 61 |
| CCNC(=O)Nc1ccc(C(O)(C(F)(F)F)C(F)(F)F)cc1[N+](=O)[O-] | 169 to 171 |
| CCCCCCOc1ccc(-c2ncc(Br)cn2)cn1 | 103 to 106 |
| COc1nc(C)c(C)nc1N(C)C(=O)N1CCN(c2cc(C)cc(C)c2)CC1 | 94 to 96 |
| Nc1nc(CN2CCCN(C(c3ccccc3)c3ccccc3)CC2)cs1 | 152 to 156 |
| CC(=O)SCC1=C(CSC(C)=O)C(=O)C(CSC(C)=O)=C(CSC(C)=O)C1=O | 133 to 135 |
| Cc1ccc2sc3nncn3c2c1C | 226 to 228 |
| Oc1ccc(O)c(O)c1O | 162 to 164 |
| Cn1cc(C2=C(c3c4n(c5ccccc35)CCC(CO)CC4)C(=O)NC2=O)c2ccccc21 (centres undefined) | 109 to 111 |
| CC1(C)CCC(C)(C)c2cc(-c3cc(-c4ccc(C(=O)O)cc4)ccc3OCCCCCCCCO)ccc21 | 155 to 160 |
| N/C(=C1\C(=O)c2cc(Cl)ccc2S1=O)c1ccccc1Cl (centres undefined) | 248 |
| O=S(=O)(c1ccccc1)n1nc(-c2ccncc2)nc1-c1ccncc1 | 210 to 212 |
| Cn1c(C(F)(F)F)nnc1S(C)(=O)=O | 96 |

| Structure (SMILES) | melting point [°C] |
| --- | --- |
| CN1C(=O)CC[C@]2(C)c3ccc(Sc4ccc5cc(F)ccc5n4)cc3CC[C@@H]12 | 152 to 155 |
| CC(C)NC(=O)c1cc2nc(C3CC3)n(C)c2c(Cl)c1NC(=O)c1cc(C(F)(F)F)nn1-c1ncccc1Cl | 242 to 244 |
| Cc1ccc(N)c2c1CCC2=NNC(=N)N | > 250 |
| CCOC(=O)N1CCn2c(nc(-c3ccncn3)cc2=O)C(CC)C1 (racemic) | 160 to 162 |
| CN(C)C/C=C\c1ncccc1OCCO | 71 |
| CCCc1nc(C=O)c(C)[nH]1 | 126 to 129 |
| COc1ccc(S(=O)(=O)N2c3ccc(Br)cc3-c3ccccc3C2c2ccccc2)cc1Br (centres undefined) | 205 to 207 |
| CS(=O)(=O)c1cccc(C/C=C(/F)CN2C(=O)c3ccccc3C2=O)c1 | 124 to 126 |
| C=C1CCC2C3CCc4cc(O)c(C=O)cc4C3CCC12C (centres undefined) | 128 to 130 |
| CN1CC[C@H](c2ccccc2)[C@H](O)C1 (relative stereo) | 95 to 97 |
| N#Cc1c(O)nsc1S(=O)(=O)c1ccccc1 | 163 to 164 |
| COc1cc(C)nc(S(C)(=O)=O)n1 | 80 |
| ON=CCc1ccccc1 | 90 to 94 |
| O=C(NC1N=C(c2ccccc2F)c2ccccc2NC1=O)c1ccsc1 (racemic) | 238 to 239 |
| C[C@]1(CN2CCN(Nc3ccc(C(F)(F)F)cc3)CC2)Cn2cc([N+](=O)[O-])nc2O1 | 192 to 195 |
| CCS(=O)(=O)c1cc(C(=O)NCC2CCCN2C)c(OC)cc1N (centres undefined) | 126 to 127 |
| C#CCOc1cc(F)ccc1[N+](=O)[O-] | 38 to 39 |
| CCCCCCCCCCCCCCCCCCCc1cccc(N)c1 | 50 to 51 |

Now from value to compound:

| melting point [°C] | Structure (SMILES) |
| --- | --- |
| 150 to 152 | CCCc1ccc(S(=O)(=O)NN2CCOCC2)cc1 |
| 185 to 187 | CCOC(=O)c1c(O)c2cc(Cl)cnc2n(Cc2ccc(OC)cc2)c1=O |
| 193 to 195 | COc1ccc2c(c1)C(=O)C(CN1CCC(O)(c3ccc(F)cc3)CC1)CC2 (centres undefined) |
| 149 to 150 | OCCOc1ccc(C2=NCCO2)cc1 |
| 197 to 200 | O=C(O)CCc1cc(C(=O)c2cccc(C(=O)O)c2)ccc1O |
| 128 to 131 | O=Cc1ccc(OCCCC(=O)O)c(Cl)c1 |
| 118 to 119 | Cc1oc(-c2ccccc2)nc1COc1cccc(/C=C/CO)c1 |
| 246 to 247 | CCCOc1ccc(C(N)=O)cc1-c1ccc(C#N)c(=O)[nH]1 |
| 184 | COc1cc(-c2nc3ccc(OCCN(C(C)C)C(C)C)cc3n2Cc2ccccc2C(F)(F)F)cc(OC)c1OC |
| 223 | CC(=O)Nc1ccc(CCN(C)C)c2cn[nH]c12 |
| 108 to 109 | CS(=O)c1ccc(C2=CC(=O)C(C)(C)O2)cc1 (centres undefined) |
| 99 to 100 | COC(=O)c1cccc(OCCCNC(=O)C[C@H]2O[C@H](c3cccc(OC)c3OC)c3cc(Cl)ccc3N(CC(C)(C)CO)C2=O)c1 |
| 261 to 262 | O=C(O)c1ccc(-c2nc(-c3ccc(OC(F)F)cc3)co2)cc1 |
| 43 to 44 | COc1ccc(CCN2C=CC=C3C2=Nc2cc(C(F)(F)F)ccc2S(=O)(=O)N3C)cc1 |
| 195 to 197 | CS(=O)(=O)Oc1ccc(-c2cc3ccc(OS(C)(=O)=O)cc3s2)cc1 |
| 138 to 145 | COc1cc(NC(=O)c2cccc(CCl)c2)cc(OC)c1OC |
| 160 | COC(=O)c1sc2ccc(OC)cc2c1OCC#N |
| 93 to 94 | CCNC(=O)N(CCO)Cc1cc([N+](=O)[O-])ccc1OC |
| 179 to 180 | Cc1oc(-c2ccccc2)nc1CCOc1ccc(NC2SC(=O)NC2=O)cc1 (centres undefined) |
| 146 to 148 | CNS(=O)(=O)c1ccc(C2=NC(C)(C)Cc3cc(OC)c4c(c32)CC(C)(C)O4)cc1 |
| 182 to 183 | COc1cc2c(cc1C=NO)C(C)(C)CCC2(C)C |
| 134 to 137 | COc1ccc2c(c1)c(C)cn2CCCCCC(=O)O |
| 195 to 196 | Cc1cc(N)ccc1Oc1ccc(Oc2ccc(N)cc2C)cc1 |
| 161 to 163 | CNC(=S)NS(=O)(=O)c1cc(CCNC(=O)/C=C/c2cccs2)ccc1OCCOC(F)(F)F |

| melting point [°C] | Structure (SMILES) |
| --- | --- |
| 128 to 130 | CN(C)CC(c1ccc(OC(=O)c2ccccc2)cc1)C1(OC(=O)c2ccccc2)CCCCC1 (centres undefined) |
| 98 to 100 | CS(=O)(=O)OCCOc1ccccc1OCc1ccccc1 |
| 94.5 to 95 | COC(=O)NNC(=S)Cc1ccc(OC)cc1 |
| 97 to 100 | Cc1ccccc1CC(=NC#N)NC(NC(=O)Cc1cccc2ccccc12)C(C)(C)C (centres undefined) |
| 135 to 137 | COc1cc(C2=NCCO2)cc(OC)c1C(C)=O |
| 122 to 123 | O=C(O)C(=O)c1ccc2c(c1)CCS2 |
| 218 to 220 | COc1ccc(-c2nc(C)c(C(N)=O)s2)cc1OC |
| 118 to 120 | CC(C)(C)OC(=O)NC(Cc1ccccc1)CC(O)C(Cc1ccccc1)NC(=O)OCc1cncs1 (centres undefined) |
| 157 | COc1ccc2nc(SCc3nccc(OC)c3OC)[nH]c2n1 |
| 122 to 125 | COC(=O)Cc1cc(C)c(C(=O)c2ccc(Cl)cc2)n1C |
| 56 to 57 | CC(C)OC(=O)COc1ccc(CCNS(=O)(=O)c2ccccc2)cc1 |
| 157 to 160 | CON(Cc1ccc(C(=O)OC(C)(C)C)cc1)C(=O)C1=C(O)C(=O)N(C)C1 |
| 168 | COc1cc2c(cc1OC)CN(CC(O)c1ccc(N)cc1)CC2 (centres undefined) |
| 134 to 136 | COCCOc1ccc(CCNC(=O)C(F)(F)F)cc1S(=O)(=O)N=CN(C)C |
| 87 to 89 | O=C(NCC1Cc2ccccc2C1)OCc1ccccc1 |
| 191 to 192 | COC(=O)NNc1cc(C)c(-c2ccc(C#N)cc2)nn1 |
| 159 to 162 | Cc1cc(-c2ccccc2)n(-c2ccc(C(=O)O)cc2)n1 |
| 97 to 98.5 | CCOC(=O)/C=C(C)/C=C/C(Br)=C(/C)c1ccc2c(c1)C(C)(C)CCC2(C)C |
| 199 to 200 | O=C(O)CCc1oc(N2CCCC2)nc1-c1ccc(Cl)cc1 |
| 180 | Cc1ccc(S(=O)(=O)NC2CCCCNC2=O)cc1 (centres undefined) |
| 190 to 192 | CC(C)NC(=O)Nc1ccc(Cl)cc1C(=O)c1ccccc1 |
| 44 to 45 | C=Cc1c(C(=O)OC)cccc1[N+](=O)[O-] |
| 185 to 187 | CCOC(=O)Nc1nc2ccccc2c2c1nc(CC)n2CCCCNS(C)(=O)=O |
| 82 to 84 | COC(=O)c1cccc(C=O)c1O |
